Values after ≈ are worked out from the molar mass of the structure shown. “Also recorded” adds a separate entry of the source. Where a SMILES comes first, the peptide text is derived from it. The star is where a group is joined. Cbz = O=C(OCc1ccccc1)*; CH2F = FC*
Columns and labels:
[1] = test system: A549 cells; test: FAS-induced apoptosis (activating anti-FAS antibody CH-11) in A549 cells, ISEL / nuclear fragmentation; assay type: cell-based, human; settings: for inhibition of Fas-induced apoptosis of A549 cells: lisinopril 500 ng/ml
Description: Cell Culture. […] Cells were seeded on 12 mm sterile glass cover slips in 24-well chambers at a density of 20,000 cells per well.
Fluorescence Detection of Apoptosis. […] J. Physiol. […] In these assays detached cells were retained by centrifugation of the 24-well culture vessels during fixation with 70% ethanol. In situ end-labeling of fragmented DNA (ISEL) was conducted as described in Gorczyka et al., Canc. Res. 53:1945-1951 (1993). Briefly, ethanol was removed by rinsing cover slips in distilled water for at least 10 minutes. […] The sections were rinsed thoroughly five times with Buffer A and three additional times in 0.5 M PBS. Incorporated bio-UTP was detected by incubation for one hour at 37° C. with avidin-rhodamine; the cover slips were then rinsed in distilled water three times and mounted under Fluoromount Solution (Southern Biotechnology Associates, Birmingham, Ala.).
Spontaneous or stimulated apoptosis was quantitated as described in Uhal et al., Am. J. Physiol. 269:L819-L828 (1995), in the human lung epithelial cell line A549 by fluorescence detection of chromatin condensation and nuclear fragmentation. The human lung epithelial cell line A549 was cultured on glass cover slips as described in Uhal, et al., Am. J. Physiol. 269:L819-L828 (1995). At the end of the test period, detached cells were retained by centrifuging the culture vessel during fixation of cells in 70% ethanol. Fixed cells were incubated for 30 minutes with 5 ug/ml propidium iodide (PI) in PBS containing DNAse-free RNAse; under these conditions, red fluorescence (>570 nm) is specific for DNA. As in Uhal et al., Am. J. Physiol. 269:L819-L828 (1995), apoptotic cells were identified by the presence of discrete nuclear fragments containing condensed chromatin. Human lung A549 cells were cultured for 20 h in the presence of equivalent concentrations (500 ng/ml) of monoclonal antibody CH-11 (FAS mAb), purified IgM fraction of nonimmune mouse immunoglobulins (IgM), monoclonal antibody 5F-7 (mAb2), and monoclonal antibody 5F-9 (mAb3). Apoptotic cells were scored by the nuclear morphology assay discussed above. A significant difference (p<0.01 compared to control (no additives)), was observed between the means±S.E.M. (at least 4 determinations per condition) of the cells exposed to FAS mAb as compared to the control or other antibody treatments as determined by ANOVA and Dunnett's test. […] J. Physiol.
Ethanol-fixed A549 cells on glass cover slips were subjected to ISEL labeling of fragmented DNA. DNA fragments labeled with biotinylated UTP were detected with rhodamine-conjugated avidin. A549 cells were exposed to either 500 ng/ml anti-FAS antibody (CH-11) under the same conditions as described above or in the presence of 50 ng/ml captopril. […] ISEL-positive A549 cells were quantitated in at least four separate culture vessels exposed to the anti-FAS antibody CH-11 at 500 ng/ml and/or 50 ng/ml captopril.
A549 cells were exposed to anti-FAS antibody CH-11 as described above, in the presence of 0.005 ng/ml (5 pg/ml) to 50 ng/ml captopril. Inhibition of apoptosis was detected as the decrease in ISEL-positive cells, scored as described above. […] Inhibition of apoptosis was maximal (approximately 85-90%) at 50 ng/ml captopril, a concentration known to be physiologically attainable in humans and to be maximally inhibitory for ACE. See Duchin et al., Clin. Pharmacokinet. 14:241-259 (1988).
Cell Culture and Detection of Apoptosis. […] Ibarra-Sunga, C. Gidea, E. Ang, S. Deshmukh, G. Chaudhary, J. Baraboutis, G. Filippatos and B. D. Uhal, Angiotensin II induces apoptosis in human and rat alveolar epithelial cells. Am. J. Physiol. 276:L885-L889 (1999)). […] J. Physiol. […] As in the above Examples, the induction of apoptosis was verified by Annexin V binding and generation of DNA strand breaks […]

[2] = test system: primary rat AEC; settings: for inhibition of amiodarone-induced apoptosis: captopril 500 ng/ml, saralasin 50 ug/ml, Losartan 5 pg/ml, amiodarone 2.5 ug/ml for chelerythrine, orthovanadate
Description: (§1) The human lung adenocarcinoma cell line A549 (ATCC) was cultured in Ham's F12 medium supplemented with 10% fetal bovine serum (FBS). Primary alveolar epithelial cells were isolated from adult male Wistar rats. The primary cells were studied at day two of culture, a time at which they are type II cell-like by accepted morphologic and biochemical criteria. […] All cells were seeded in 24-well or 6-well chambers, and all experiments were conducted at subconfluent densities of 80-90% in serum-free Ham's F12 medium. Test reagents were diluted with Ham's F12 medium and were applied for 20 hours at 37C. in a 5% CO2 incubator.
(§2) Apoptotic cells were detected using propidium iodide (PI) following digestion of ethanol-fixed cells with DNAse-free RNAse in PBS containing 5 ug/ml PI. […] In replicate culture vessels, necrosis was detected as the loss of exclusion of PI after application of the vital dye directly to the cell culture medium at 5 ug/ml final concentration. Red fluorescent (PI-POSITIVE) cells (>570 nm) were scored over the subsequent hour as a percentage of the total cells in any given field. A minimum of 4 separate fields were scored in each of three separate culture vessels per experiment condition; all experiments were performed at least twice and the data were compiled. Although all necrotic cells are PI-positive, some apoptotic cells may also take up the dye but these comprise a minor fraction of the total dead cell population.
(§3) In all assays, detached cells were retained by centrifugation of the culture vessel at 300×g for 10 minutes with a centrifuge rotor designed for culture plates. For detection of necrosis (dye exclusion of PI), the PI was added directly to the cell culture medium immediately before centrifugation of the culture vessel. For detection of apoptosis, ethanol was added directly to the cell culture medium to a final concentration of 70% immediately before the centrifugation. Afterward, the ethanol was carefully removed and the total cell population (attached plus sedimented detached cells) were stained with PI as described above.

[3] = test system: A549 cells; settings: for inhibition of amiodarone-induced apoptosis: captopril 500 ng/ml, saralasin 50 ug/ml, Losartan 5 pg/ml
Description: as §1, §2, §3

## CCc1nc2c(C)cc(C)nc2n1Cc1ccc(-c2ccccc2-c2nn[nH]n2)cc1 [L158809]
[1]
  inhibition of Fas-induced apoptosis of A549 cells: could block

## COc1ccc2c(c1OCc1ccccc1)C[C@@H](C(=O)O)N(C(=O)C(c1ccccc1)c1ccccc1)C2 [PD126055]
[1]
  inhibition of Fas-induced apoptosis of A549 cells: unable to significantly inhibit

## COC(=O)C[C@H](NC(=O)[C@H](C)NC(=O)[C@@H](NC(=O)OCc1ccccc1)C(C)C)C(=O)CF [ZVAD-fmk, N-benzylcarboxy-Val-Ala-Asp-[O-Me]-CH2F] (Cbz-Val-Ala-Asp(OMe)-CH2F)
[2]; primary rat AEC
  inhibition of apoptosis in response to amiodarone: 97%
[3]; A549
  inhibition of apoptosis in response to amiodarone: 81%

## C[C@H](CS)C(=O)N1CCC[C@H]1C(=O)O [captopril]
[2]
  inhibition of amiodarone-induced apoptosis: inhibited
[3]
  inhibition of amiodarone-induced apoptosis: inhibited
[1]; 50 ng/ml captopril with anti-FAS CH-11 500 ng/ml
  effect on FAS-induced apoptotic indexes (morphology, DNA fragmentation, ISEL-positive cells): completely abrogated; also recorded: essentially abolished
[1]; Homo sapiens, A549, 20 h, read-out: IC50 of inhibition of FAS-induced apoptosis (ISEL labeling)
  IC50: 0.07 ng/mL (≈ 0.322 nM)
[1]; Homo sapiens, A549, read-out: maximal inhibition of apoptosis (decrease in ISEL-positive cells)
  inhibition at 0.05 µg/mL: 85 to 90%
[1]; anti-FAS CH-11
  concentration at which inhibition of FAS-induced ISEL labeling was measurable: 5 pg/mL
[1]; captopril alone
  effect on basal ISEL labeling: no significant effect

## NCCCC[C@H](N[C@@H](CCc1ccccc1)C(=O)O)C(=O)N1CCC[C@H]1C(=O)O [lisinopril]
[1]; Homo sapiens, A549 or primary rat AEC, lisinopril 0.5 μg/ml, saralasin 5 μg/ml, read-out: maximal inhibition of apoptosis in response to either Fas activator
  inhibition at 0.5 µg/mL: 82%
[1]
  inhibition of Fas-induced apoptosis of A549 cells: significantly inhibited

## CNCC(=O)N[C@@H](CCCN=C(N)N)C(=O)N[C@H](C(=O)N[C@@H](Cc1ccc(O)cc1)C(=O)N[C@H](C(=O)N[C@@H](Cc1cnc[nH]1)C(=O)N1CCC[C@H]1C(=O)N[C@@H](C)C(=O)O)C(C)C)C(C)C [saralasin]
[2]
  inhibition of amiodarone-induced apoptosis: inhibited
[3]
  inhibition of amiodarone-induced apoptosis: inhibited
[1]; cell type not given
  inhibition of AEC apoptosis in response to Fas: 93%

— patent US20030113330A1, “Methods for treating pulmonary fibrosis” (priority 1999, published 2003)
